Data published in ChEMBL document CHEMBL1134732, “Acid dissociation constant, a potential physicochemical factor in the inhibition of the enzyme estrone sulfatase (ES)” (Bioorg Med Chem Lett, 2001).

What was measured:
[1] = Dissociation constant was determined; format: physicochemical
[2] = target: T1, Steryl-sulfatase (Homo sapiens) (UniProt P08842); test: (§1) Potency for the inhibition of estrone sulfatase relative to coumate
T1 sequence (whole entry): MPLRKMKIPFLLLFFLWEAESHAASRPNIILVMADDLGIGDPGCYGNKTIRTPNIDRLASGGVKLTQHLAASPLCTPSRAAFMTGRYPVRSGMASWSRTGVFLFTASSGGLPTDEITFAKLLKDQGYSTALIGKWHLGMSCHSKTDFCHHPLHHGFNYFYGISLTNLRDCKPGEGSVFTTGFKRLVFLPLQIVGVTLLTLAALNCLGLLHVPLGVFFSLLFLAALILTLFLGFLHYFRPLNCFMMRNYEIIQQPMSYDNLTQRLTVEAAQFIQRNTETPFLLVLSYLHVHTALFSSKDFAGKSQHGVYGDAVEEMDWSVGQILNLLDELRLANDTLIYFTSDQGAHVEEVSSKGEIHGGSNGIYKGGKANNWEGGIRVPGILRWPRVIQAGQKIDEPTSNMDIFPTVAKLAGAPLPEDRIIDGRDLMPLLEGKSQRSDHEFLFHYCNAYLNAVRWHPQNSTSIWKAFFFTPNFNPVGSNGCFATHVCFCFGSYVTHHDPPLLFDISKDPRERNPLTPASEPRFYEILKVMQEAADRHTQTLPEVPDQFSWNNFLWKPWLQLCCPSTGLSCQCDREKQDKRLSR

Steryl-sulfatase = target: T2, Steryl-sulfatase (Homo sapiens, UniProt P08842); test: Inhibitory concentration against estrone sulfatase
T2 sequence (P08842 whole entry): T1 sequence (whole entry)

[3] = as §1

SMILES | pKa [1] | Relative potency [2] | IC50 (Steryl-sulfatase) | Relative potency [3]
NS(=O)(=O)Oc1cccc(Br)c1 | 8.95 | 21 | 257 µM | –
N#Cc1cccc(OS(N)(=O)=O)c1 | 8.54 | 16 | 190 µM | –
N#Cc1ccc(OS(N)(=O)=O)cc1 | 8.02 | 25 | 300 µM | –
C[C@]12CC[C@@H]3c4ccc(OS(N)(=O)=O)cc4CC[C@H]3[C@@H]1CCC2=O [EMATE] | – | – | 0.1 µM | 0.008
NS(=O)(=O)Oc1ccc([N+](=O)[O-])cc1 | 7.15 | 27.5 | 330 µM | –
NS(=O)(=O)Oc1cccc([N+](=O)[O-])c1 | 8.28 | 10 | 120 µM | –
NS(=O)(=O)Oc1ccc2ccc(=O)oc2c1 | – | – | 12 µM | 1
NS(=O)(=O)Oc1ccccc1 [PHENYLSULFAMATE] | 9.98 | – | > 10000 µM | –
NS(=O)(=O)Oc1ccc(F)cc1 | 9.8 | – | > 10000 µM | –
NS(=O)(=O)Oc1ccc(Br)cc1 | 9.29 | 76 | 912 µM | –
NS(=O)(=O)Oc1cccc(F)c1 | 9.16 | 174 | 2090 µM | –
Cc1ccc(OS(N)(=O)=O)cc1 | 10.2 | – | > 10000 µM | –
NS(=O)(=O)Oc1ccc(Cl)cc1 | 9.5 | 132 | 1580 µM | –
Cc1cccc(OS(N)(=O)=O)c1 | 10 | – | > 10000 µM | –
NS(=O)(=O)Oc1cccc(Cl)c1 | 9 | 45 | 537 µM | –
